Measured values taken from PubChem BioAssay (NCI).
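Following 48 hours of exposure in 96-well plates, responses at five concentrations were used to interpolate endpoints linearly. TGI marks complete inhibition of growth.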

How the values were obtained:
Test in all cases: NCI tumour cell line growth inhibition, 48 h
DLD-1 colon = test system: DLD-1 colon
DMS 114 small cell lung = test system: DMS 114 small cell lung
DMS 273 small cell lung = test system: DMS 273 small cell lung
EKVX NSCLC = test system: EKVX NSCLC
HOP-18 NSCLC = test system: HOP-18 NSCLC
KM20L2 colon = test system: KM20L2 colon
LXFL 529 NSCLC = test system: LXFL 529 NSCLC
M19-MEL melanoma = test system: M19-MEL melanoma
RXF-631 renal = test system: RXF-631 renal
SNB-78 CNS = test system: SNB-78 CNS
XF 498 CNS = test system: XF 498 CNS

Row | SMILES | TGI (DLD-1 colon) | TGI (DMS 114 small cell lung) | TGI (DMS 273 small cell lung) | TGI (EKVX NSCLC) | TGI (HOP-18 NSCLC) | TGI (KM20L2 colon) | TGI (LXFL 529 NSCLC) | TGI (M19-MEL melanoma) | TGI (RXF-631 renal) | TGI (SNB-78 CNS) | TGI (XF 498 CNS)
1 | COc1ccccc1-n1c(NN)nc2ccc(Br)cc2c1=O | > 100 µM | > 100 µM | > 100 µM | > 100 µM | 61.5 µM | > 100 µM | > 100 µM | > 100 µM | > 100 µM | > 100 µM | 92.1 µM
2 | C#CCNC(=O)NCCCCC(NC(C)=O)C(=O)NCc1ccccc1 (stereo unspecified) | > 100 µM | > 100 µM | – | > 100 µM | > 100 µM | > 100 µM | > 100 µM | > 100 µM | > 100 µM | > 100 µM | > 100 µM
3 | CCOC(=O)CCC(NC(=O)c1ccc(N=Cc2nc3ccccc3nc2-c2ccccc2)cc1)C(=O)OCC (stereo unspecified) | > 100 µM | > 100 µM | > 100 µM | > 100 µM | > 100 µM | > 100 µM | > 100 µM | – | > 100 µM | > 100 µM | > 100 µM
4 | CCN(CC)CCC1(C2CCCCC2)CCC(=O)NC1=O (stereo unspecified) | > 100 µM | > 100 µM | > 100 µM | > 100 µM | – | > 100 µM | > 100 µM | > 100 µM | > 100 µM | > 100 µM | > 100 µM
